From patent US11202795B2, “Means and methods for treatment of early-onset Parkinson's disease” (VIB VZW, priority 2014, dated 2021)
Entries after “also recorded” stand apart in the source; their conditions may differ.

Key:
[1] = tested on: PINK1 mutant flies; assay: Flight assay of PINK1 mutant flies fed with FAS inhibitor; type: in vivo, Drosophila melanogaster
Description: FASN is a 273 kDa protein that produces palmitate, which is a precursor of fatty acids in a seven-step enzymatic reaction. FASN uses malonyl CoA and acetyl CoA as substrates. Several inhibitors of FASN function exist. Tests were performed to determine whether defective flight in PINK1 mutants could be pharmacologically rescued.
One-day-old adult flies were placed on molasses medium supplemented with 100 μM Cerulenin (Enzo Life Sciences) or 3 μM Irgasan (Sigma) (2.5% final ethanol concentration) or supplemented with 2.5% ethanol for control medium. […] To determine mitochondrial morphology, embryos were placed on molasses medium supplemented with 100 μM Cerulenin (2.5% final ethanol concentration) or supplemented with 2.5% ethanol for control medium and grown to the third instar larval stage. These third instar larvae were dissected and used for experiments (see below).
The flight assay was conducted on male flies using batches of five flies each. The flies were placed in an empty vial and gently tapped.

[2] = tested on: PINK1−/− MEFs; assay: ATP levels of PINK1−/− MEFs treated with FASN inhibitor; type: cell-based, mice; conditions: 10 μM Cerulenin vs untreated cells
Description: To directly test if further lowering FASN activity in PINK mutant cells rescues the mitochondrial dysfunction in these cells, ATP levels were tested.
(§1) Cells were treated with 10 μM Cerulenin (0.1% ethanol) or control medium supplemented with 0.1% ethanol.
(§2) ATP levels were determined as previously described (Morais et al. (2014) Science 344:203-207) using an ATP determination kit (Invitrogen) according to supplier's protocol. Luminescence was measured on a luminometer (Biorad) and values were normalized to total protein content (Bradford method).

[3] = tested on: control cells (PINK1+/+ MEF and L2134 controls); assay: ATP levels of control cells treated with FASN inhibitor; type: cell-based
Description: as §2, with “Cells were treated with 10 μM Cerulenin (0.1% ethanol) or control medium supplemented with 0.1% ethanol. ATP levels” for “ATP levels”

[4] = tested on: PINK−/− MEFs; assay: Shotgun lipidomics of mitochondrial fractions (cardiolipin levels); type: cell-based, mice; conditions: compared to control MEFs
Text: Nonetheless, when FASN activity was lowered further in PINK1^−/− mutants, either by genetic or by pharmacological inhibition, the palmitate levels drop further. […] Only unsaturated phosphatidylglycerol (PG) is a good substrate for CL synthase (Bobyleva et al. (1997) Biochem. Mol. Biol. Int. 41:469-480) and high levels of palmitate shift the balance toward more saturated PG (Ostrander et al. (2001) J. Biol. Chem. 276:38061-38067). Opposite to this, it was confirmed that inhibition of FASN results in more unsaturated PG, while wondering if FASN inhibition results in increased CL levels.
as §1
Mitochondria were isolated and resuspended in ammonium bicarbonate buffer. Lipids were extracted and analyzed using shotgun mass spectrometry (lipotype). In short, using Chloroform and Methanol, lipids were extracted via a two-step lipid extraction process. These extracted lipids were then immediately subjected to mass spectrometric analysis. Lipid data were acquired on a hybrid quadrupole/ORBITRAP® mass spectrometer (Q-Exactive, Thermo-Fisher) equipped with an automated nanoflow electrospray ion source (TRIVERSA NANOMATE® Advion) in both positive and negative ion mode. LIPOTYPE® XPLORER® was used to identify lipids on unprocessed mass spectra.

[5] = tested on: fibroblasts from patients carrying mutations in PINK1 (L1703); assay: ATP levels of fibroblasts from patients carrying PINK1 mutations; type: cell-based, human; conditions: patient fibroblasts with PINK1 mutations (L1703), 10 μM Cerulenin vs untreated cells
Description: To directly test if further lowering FASN activity in PINK mutant cells rescues the mitochondrial dysfunction in these cells, ATP levels were tested. […] Thus, the inhibition of FASN with an inhibitor rescues in flies and cells isolated from mice and patients the PINK1-induced mitochondrial defects.
as §1, §2

SMILES | flight ability ([1]; PINK1 mutant flies on food with different concentrations of cerulenin, flight assay every 24 hours) | ATP levels [2] | ATP levels [3] | cardiolipin (CL) levels [4] | ATP levels [5] | flight ability ([1]; PINK1 mutant flies (B9), concentrations between 1-10 μM irgasan in food)
C/C=C/C/C=C/CCC(=O)[C@H]1O[C@H]1C(N)=O [cerulenin] | increased flight ability; also recorded: a dose-response effect was observed | elevated ATP levels compared to untreated cells; also recorded: increased levels of ATP | did not have an effect | almost completely restored the levels of all the CL species that were assessed back to control levels | elevated ATP levels compared to untreated cells; also recorded: increased levels of ATP | –
Oc1cc(Cl)ccc1Oc1ccc(Cl)cc1Cl [irgasan] | – | – | – | – | – | clearly enhance the flight ability
